This is an account of results in paper PMC7026418, “The kinase polypharmacology landscape of clinical PARP inhibitors” (Scientific Reports, 2020).

Where two headings read alike, the source gives them in different places.

Some targets named below: CHEK2 (Homo sapiens, UniProt O96017); MELK (Homo sapiens, UniProt Q14680); PIM1 (Homo sapiens, UniProt P11309); NEK6 (Homo sapiens, UniProt Q9HC98); FLT1 (Homo sapiens, UniProt P17948).
What all share (test): biochemical
Set-up in all cases: DiscoveRx KINOMEscan active site-directed competition binding; percent of control kinase bound to immobilised ligand

Another assay has as its target T1, HPK1 (Homo sapiens, UniProt Q92918).
T1 construct: gene MAP4K1

The target in the next assay is T2, IRAK3 (Homo sapiens, UniProt Q9Y616).
T2 sequence (Q9Y616 1-596): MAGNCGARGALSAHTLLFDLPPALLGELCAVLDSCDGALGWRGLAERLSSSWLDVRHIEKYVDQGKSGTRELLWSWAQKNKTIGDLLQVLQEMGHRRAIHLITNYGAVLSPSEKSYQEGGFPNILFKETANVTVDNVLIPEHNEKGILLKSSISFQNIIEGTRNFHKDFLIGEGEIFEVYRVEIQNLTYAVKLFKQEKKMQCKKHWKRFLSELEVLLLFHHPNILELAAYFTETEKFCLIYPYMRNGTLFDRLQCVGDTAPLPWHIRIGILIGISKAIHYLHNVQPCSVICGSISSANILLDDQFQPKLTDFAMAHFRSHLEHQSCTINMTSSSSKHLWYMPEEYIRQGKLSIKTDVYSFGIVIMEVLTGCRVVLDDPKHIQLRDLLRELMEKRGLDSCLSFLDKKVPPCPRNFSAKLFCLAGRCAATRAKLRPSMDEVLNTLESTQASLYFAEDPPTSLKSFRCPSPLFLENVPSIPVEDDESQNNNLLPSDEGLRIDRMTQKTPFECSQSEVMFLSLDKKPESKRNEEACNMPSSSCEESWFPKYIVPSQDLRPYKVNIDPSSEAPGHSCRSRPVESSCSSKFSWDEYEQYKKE

A further assay has as its target T3, DRAK1 (Homo sapiens, UniProt Q9UEE5).
T3 construct: gene STK17A
T3 sequence (Q9UEE5 1-414): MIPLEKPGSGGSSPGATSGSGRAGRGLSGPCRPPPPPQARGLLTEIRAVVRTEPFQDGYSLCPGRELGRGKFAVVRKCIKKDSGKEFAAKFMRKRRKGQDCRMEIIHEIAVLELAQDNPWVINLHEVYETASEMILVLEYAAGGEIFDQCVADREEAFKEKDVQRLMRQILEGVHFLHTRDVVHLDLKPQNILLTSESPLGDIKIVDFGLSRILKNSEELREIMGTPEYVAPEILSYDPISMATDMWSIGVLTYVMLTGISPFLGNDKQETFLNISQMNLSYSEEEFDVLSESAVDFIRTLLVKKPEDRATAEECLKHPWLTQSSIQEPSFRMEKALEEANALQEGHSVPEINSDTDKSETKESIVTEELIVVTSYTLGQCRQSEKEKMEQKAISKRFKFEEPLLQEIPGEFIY

The target of the next assay is T4, IRAK4 (Homo sapiens, UniProt Q9NWZ3).
T4 sequence (Q9NWZ3 1-460): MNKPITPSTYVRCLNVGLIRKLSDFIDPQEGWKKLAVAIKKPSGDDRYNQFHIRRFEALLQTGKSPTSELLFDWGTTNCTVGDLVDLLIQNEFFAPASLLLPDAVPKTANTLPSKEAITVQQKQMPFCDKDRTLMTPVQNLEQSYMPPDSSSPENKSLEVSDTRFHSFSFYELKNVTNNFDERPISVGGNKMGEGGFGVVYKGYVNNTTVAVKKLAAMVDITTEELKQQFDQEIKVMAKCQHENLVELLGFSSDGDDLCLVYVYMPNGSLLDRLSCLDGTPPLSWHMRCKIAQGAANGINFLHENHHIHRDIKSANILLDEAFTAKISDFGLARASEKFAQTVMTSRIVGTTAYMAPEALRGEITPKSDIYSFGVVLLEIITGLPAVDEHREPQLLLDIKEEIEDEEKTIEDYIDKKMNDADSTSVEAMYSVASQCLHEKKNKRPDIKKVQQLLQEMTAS

The target of another assay is T5, MEK5 (Homo sapiens, UniProt Q13163).
T5 construct: gene MAP2K5
T5 sequence (Q13163 1-448): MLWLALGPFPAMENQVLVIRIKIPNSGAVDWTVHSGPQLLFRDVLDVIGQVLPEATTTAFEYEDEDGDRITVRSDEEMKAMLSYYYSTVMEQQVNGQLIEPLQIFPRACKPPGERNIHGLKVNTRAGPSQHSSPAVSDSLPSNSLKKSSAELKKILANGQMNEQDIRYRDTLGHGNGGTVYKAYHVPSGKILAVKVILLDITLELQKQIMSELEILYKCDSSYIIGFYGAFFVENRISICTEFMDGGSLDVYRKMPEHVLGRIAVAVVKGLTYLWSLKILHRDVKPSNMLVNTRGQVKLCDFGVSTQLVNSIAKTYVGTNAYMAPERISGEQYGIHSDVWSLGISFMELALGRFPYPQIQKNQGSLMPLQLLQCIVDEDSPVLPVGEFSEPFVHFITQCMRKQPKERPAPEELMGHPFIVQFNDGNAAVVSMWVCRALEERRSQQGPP

Where [1] appears, read: read-out: Niraparib (MK-4827) / %Ctrl @ 10000nM.
Setting [2] is: read-out: Olaparib / %Ctrl @ 10000nM.
Setting [3] is: read-out: Rucaparib / %Ctrl @ 10000nM, binding competition, % of control.
Setting [4] is: read-out: Talazoparib (BMN 673) / %Ctrl @ 10000nM.

Sequence of FLT1 (P17948 whole entry): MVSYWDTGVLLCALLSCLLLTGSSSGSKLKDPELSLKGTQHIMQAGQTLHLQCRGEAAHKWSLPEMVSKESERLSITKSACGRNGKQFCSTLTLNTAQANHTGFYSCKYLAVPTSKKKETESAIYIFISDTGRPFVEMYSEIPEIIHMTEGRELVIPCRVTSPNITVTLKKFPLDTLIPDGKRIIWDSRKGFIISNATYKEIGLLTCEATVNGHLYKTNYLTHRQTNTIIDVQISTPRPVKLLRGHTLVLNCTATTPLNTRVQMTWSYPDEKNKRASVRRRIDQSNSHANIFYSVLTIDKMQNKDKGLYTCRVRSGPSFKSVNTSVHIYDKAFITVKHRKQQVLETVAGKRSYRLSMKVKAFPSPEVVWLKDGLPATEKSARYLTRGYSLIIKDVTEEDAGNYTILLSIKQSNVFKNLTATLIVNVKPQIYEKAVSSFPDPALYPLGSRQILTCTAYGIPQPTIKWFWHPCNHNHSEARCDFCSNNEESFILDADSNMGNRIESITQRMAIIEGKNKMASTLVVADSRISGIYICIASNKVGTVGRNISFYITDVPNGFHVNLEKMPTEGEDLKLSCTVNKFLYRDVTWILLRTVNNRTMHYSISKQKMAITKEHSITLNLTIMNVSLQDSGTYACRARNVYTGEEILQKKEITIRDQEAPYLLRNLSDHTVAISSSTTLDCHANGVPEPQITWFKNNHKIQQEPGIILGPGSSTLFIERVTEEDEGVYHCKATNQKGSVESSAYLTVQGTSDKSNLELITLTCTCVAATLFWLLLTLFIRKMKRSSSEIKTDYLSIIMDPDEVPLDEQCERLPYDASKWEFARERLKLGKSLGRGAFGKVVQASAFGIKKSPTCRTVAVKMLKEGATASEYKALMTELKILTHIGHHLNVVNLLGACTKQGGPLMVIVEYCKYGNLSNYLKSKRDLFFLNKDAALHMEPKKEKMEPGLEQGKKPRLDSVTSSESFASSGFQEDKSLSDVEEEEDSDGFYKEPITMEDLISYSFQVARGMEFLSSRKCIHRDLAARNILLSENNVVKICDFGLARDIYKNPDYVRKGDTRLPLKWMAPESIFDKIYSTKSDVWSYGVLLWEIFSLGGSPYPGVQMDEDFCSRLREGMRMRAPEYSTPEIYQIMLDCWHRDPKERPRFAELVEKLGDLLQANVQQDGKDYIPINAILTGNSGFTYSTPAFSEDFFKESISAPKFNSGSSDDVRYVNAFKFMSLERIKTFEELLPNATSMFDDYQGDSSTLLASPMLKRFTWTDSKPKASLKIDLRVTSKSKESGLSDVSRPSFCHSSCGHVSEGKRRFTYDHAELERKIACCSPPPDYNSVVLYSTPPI
T1 sequence (Q92918 whole entry): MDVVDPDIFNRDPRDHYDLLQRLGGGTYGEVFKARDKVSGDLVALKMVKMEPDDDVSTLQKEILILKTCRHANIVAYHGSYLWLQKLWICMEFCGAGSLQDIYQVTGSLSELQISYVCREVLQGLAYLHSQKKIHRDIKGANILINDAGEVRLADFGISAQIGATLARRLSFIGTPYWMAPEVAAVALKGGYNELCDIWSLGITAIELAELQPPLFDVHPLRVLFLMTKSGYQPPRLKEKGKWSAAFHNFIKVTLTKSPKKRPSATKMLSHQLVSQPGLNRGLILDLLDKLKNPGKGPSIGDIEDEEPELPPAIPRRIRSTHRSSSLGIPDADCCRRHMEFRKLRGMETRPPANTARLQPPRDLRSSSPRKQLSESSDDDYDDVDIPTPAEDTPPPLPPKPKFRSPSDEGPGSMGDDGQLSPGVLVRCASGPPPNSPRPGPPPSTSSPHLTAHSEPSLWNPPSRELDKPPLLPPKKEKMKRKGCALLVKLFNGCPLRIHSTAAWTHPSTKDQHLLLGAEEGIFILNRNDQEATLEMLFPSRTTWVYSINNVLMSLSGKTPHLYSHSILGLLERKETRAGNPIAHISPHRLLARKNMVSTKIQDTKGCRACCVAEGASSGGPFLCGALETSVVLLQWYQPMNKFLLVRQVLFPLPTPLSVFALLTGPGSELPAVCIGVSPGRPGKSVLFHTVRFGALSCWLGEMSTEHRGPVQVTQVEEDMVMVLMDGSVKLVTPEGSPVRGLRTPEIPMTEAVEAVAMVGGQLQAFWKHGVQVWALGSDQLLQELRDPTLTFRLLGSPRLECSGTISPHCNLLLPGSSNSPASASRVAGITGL
Sequence of NEK6 (Q9HC98 whole entry): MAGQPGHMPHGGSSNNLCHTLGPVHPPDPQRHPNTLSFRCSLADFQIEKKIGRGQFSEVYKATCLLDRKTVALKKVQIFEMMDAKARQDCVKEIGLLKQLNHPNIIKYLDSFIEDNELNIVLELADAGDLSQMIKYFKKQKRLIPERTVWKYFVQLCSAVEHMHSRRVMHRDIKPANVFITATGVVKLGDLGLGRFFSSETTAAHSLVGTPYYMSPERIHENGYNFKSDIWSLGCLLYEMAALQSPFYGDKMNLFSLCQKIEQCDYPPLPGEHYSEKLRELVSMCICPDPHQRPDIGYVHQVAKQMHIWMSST
Sequence of CHEK2 (O96017 whole entry): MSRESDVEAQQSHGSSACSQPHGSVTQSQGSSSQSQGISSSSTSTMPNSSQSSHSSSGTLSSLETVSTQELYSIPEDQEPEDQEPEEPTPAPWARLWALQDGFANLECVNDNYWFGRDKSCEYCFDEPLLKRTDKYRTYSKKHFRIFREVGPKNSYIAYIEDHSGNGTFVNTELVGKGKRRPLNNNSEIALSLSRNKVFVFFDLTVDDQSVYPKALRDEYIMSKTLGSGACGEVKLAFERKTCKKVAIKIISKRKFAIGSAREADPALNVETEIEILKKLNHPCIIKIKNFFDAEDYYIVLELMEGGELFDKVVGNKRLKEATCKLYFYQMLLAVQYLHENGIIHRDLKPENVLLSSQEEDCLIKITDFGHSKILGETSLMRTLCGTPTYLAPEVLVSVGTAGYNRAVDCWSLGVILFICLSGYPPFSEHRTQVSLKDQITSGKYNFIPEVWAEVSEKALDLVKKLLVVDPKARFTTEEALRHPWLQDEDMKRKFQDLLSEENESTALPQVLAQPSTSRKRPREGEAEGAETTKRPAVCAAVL
Sequence of PIM1 (P11309 whole entry): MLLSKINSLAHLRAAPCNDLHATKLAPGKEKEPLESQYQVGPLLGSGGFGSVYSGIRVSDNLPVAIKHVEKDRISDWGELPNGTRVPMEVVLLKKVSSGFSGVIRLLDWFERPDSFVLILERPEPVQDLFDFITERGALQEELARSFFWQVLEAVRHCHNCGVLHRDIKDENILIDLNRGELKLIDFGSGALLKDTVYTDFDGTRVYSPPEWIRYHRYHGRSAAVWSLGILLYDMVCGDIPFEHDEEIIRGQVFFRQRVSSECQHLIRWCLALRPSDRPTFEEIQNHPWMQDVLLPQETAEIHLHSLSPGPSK
Sequence of MELK (Q14680 whole entry): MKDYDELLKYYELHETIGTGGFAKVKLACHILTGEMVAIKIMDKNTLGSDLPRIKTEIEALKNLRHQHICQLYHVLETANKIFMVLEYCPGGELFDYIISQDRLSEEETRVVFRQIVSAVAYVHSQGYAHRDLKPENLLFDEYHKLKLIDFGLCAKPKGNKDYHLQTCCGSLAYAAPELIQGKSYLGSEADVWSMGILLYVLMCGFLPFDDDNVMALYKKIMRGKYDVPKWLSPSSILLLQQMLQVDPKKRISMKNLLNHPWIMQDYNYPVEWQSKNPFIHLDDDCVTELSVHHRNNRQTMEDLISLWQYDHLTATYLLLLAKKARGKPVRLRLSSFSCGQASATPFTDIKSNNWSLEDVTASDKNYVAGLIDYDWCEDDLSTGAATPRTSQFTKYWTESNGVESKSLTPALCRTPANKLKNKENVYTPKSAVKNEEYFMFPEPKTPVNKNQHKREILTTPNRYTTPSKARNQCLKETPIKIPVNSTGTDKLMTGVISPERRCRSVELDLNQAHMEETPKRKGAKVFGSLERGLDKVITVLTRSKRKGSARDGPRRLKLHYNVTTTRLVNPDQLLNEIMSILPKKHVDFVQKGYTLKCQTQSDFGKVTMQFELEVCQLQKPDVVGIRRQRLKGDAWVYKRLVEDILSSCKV

Take `NC(=O)c1cccc2cn(-c3ccc([C@@H]4CCCNC4)cc3)nc12` [Niraparib]: the percent of control binding at 10 µM on HPK1 (setting [1]) was found to be 100%; on IRAK3 (setting [1]) it was 90%; on DRAK1 (setting [1]) it was 26%; on CHEK2 (setting [1]) it was 89%; at MELK (setting [1]) it was 70%; at PIM1 (setting [1]), 18%. In addition, the percent of control binding at 10 µM on IRAK4 (setting [1]) stood at 99%; at MEK5 (setting [1]), 66%; at NEK6 (setting [1]), 100%; at FLT1 (setting [1]) it was 100%.
Turning to `O=C(c1cc(Cc2n[nH]c(=O)c3ccccc23)ccc1F)N1CCN(C(=O)C2CC2)CC1` [Olaparib], the percent of control binding at 10 µM on HPK1 (setting [2]) is 94%; on IRAK3 (setting [2]), 82%; on DRAK1 (setting [2]), 95%; on CHEK2 (setting [2]) it was 94%; on MELK (setting [2]), 90%; at PIM1 (setting [2]), 96%. Besides, the percent of control binding at 10 µM on IRAK4 (setting [2]) came to 88%; at MEK5 (setting [2]), 77%; at NEK6 (setting [2]), 96%; on FLT1 (setting [2]) it was 99%.
Consider `CNCc1ccc(-c2[nH]c3cc(F)cc4c3c2CCNC4=O)cc1` [Rucaparib], for which the percent of control binding at 10 µM at HPK1 (setting [3]) was 96%; on IRAK3 (setting [3]), 86%; on DRAK1 (setting [3]), 14%; on CHEK2 (setting [3]), 76%; on MELK (setting [3]), 76%; on PIM1 (setting [3]), 2.8%. The percent of control binding at 10 µM at IRAK4 (setting [3]) was found to be 81%; on MEK5 (setting [3]), 70%; at NEK6 (setting [3]) it was 89%; on FLT1 (setting [3]), 93%.
Turning to `Cn1ncnc1[C@H]1c2n[nH]c(=O)c3cc(F)cc(c23)N[C@@H]1c1ccc(F)cc1` [Talazoparib], the percent of control binding at 10 µM is 85% at HPK1 (setting [4]); 100% at IRAK3 (setting [4]); 100% on DRAK1 (setting [4]); 93% on CHEK2 (setting [4]); 94% at MELK (setting [4]); 95% at PIM1 (setting [4]). Moreover, the percent of control binding at 10 µM at IRAK4 (setting [4]) turned out to be 85%; at MEK5 (setting [4]) it was 51%; at NEK6 (setting [4]), 99%; on FLT1 (setting [4]), 100%.
